From patent publication US20110105474A1, “HETEROCYCLIC DERIVATIVES AS HDAC INHIBITORS” (DAC S.r.l., priority 2008, published 2011) come the findings set out here.

Counter-ions that a name gives are not always drawn.

Common to all, as to format: cell-based
In assay [1] the test system is K562 cells. As to the kind of experiment: Cell growth, CellTiter-Glo Luminescent Cell Viability Assay, K562. The conditions noted are these: Homo sapiens, 72 h incubation. The source says: (§1) CellTiter-Glo® Luminescent Cell Viability Assay (Promega) is a homogeneous method of determining the number of viable cells in culture based on quantitation of the present ATP, which indicates the presence of metabolically active cells. The homogeneous assay procedure involves addition of a single reagent (CellTiter-Glo®Reagent) directly to the cells, which leads to cell lysis and generation of a luminescent signal proportional to the amount of the ATP and the number of cells present in culture. The assay relies on the properties of a proprietary thermostable luciferase (Ultra-Glo® recombinant luciferase), which generates a luminescent signal.
(§2) K562, A549 and HCT-116 cells, in exponential growth, were incubated for 72 h with different concentrations of the inhibitors. After 72 h, a volume of CellTiter-Glo® Reagent equal to the volume of cell culture medium was added. The content was mixed for 2 min to induce cell lysis. The luminescence was recorded after further 10 min at RT in order to obtain a stabilized luminescent signal.
(§3) The IC50 was calculated using GraphPad Software.
(§4) IC50 results were allocated to one of 3 ranges as follows: Range A: IC50≦1.0 μM; Range B: from 1.0 to 3.0 μM; Range C: IC50≧3.0 μM.

Assay [2] concerns HCT-116 cells. As to the kind of experiment: Cell growth, CellTiter-Glo Luminescent Cell Viability Assay, HCT-116. The conditions noted are these: Homo sapiens, 72 h incubation, read-out: IC50 HCT116.
Excerpt: as §1, §2, §3, §4

The test system of assay [3] is A549 cells. As to the kind of experiment: Cell growth, CellTiter-Glo Luminescent Cell Viability Assay, A549. To be noted: Homo sapiens, 72 h incubation.
Excerpt: as §1, §2, §3, §4

With `O=C(/C=C/c1cccc(/C=C/C(=O)N2CCCC(c3ccccc3C(F)(F)F)C2)n1)NO` (racemic) [Example 70, (±)-(E)-N-Hydroxy-3-(6-{(E)-3-oxo-3-[3-(2-trifluoromethyl-phenyl)-piperidin-1-yl]-propenyl}-pyridin-2-yl)-acrylamide hydrochloride], the IC50 in assay [1], in assay [2] and in assay [3] was not above 1000 nM in each case.
With `O=C(/C=C/c1cccc(/C=C/C(=O)N2CCCC(c3ccc(C(F)(F)F)cc3)C2)n1)NO` (racemic) [Example 72, (±)-(E)-N-Hydroxy-3-(6-{(E)-3-oxo-3-[3-(4-trifluoromethyl-phenyl)-piperidin-1-yl]-propenyl}-pyridin-2-yl)-acrylamide hydrochloride], the half-inhibitory concentration (IC50) in assay [1] was not above 1000 nM; in assay [2], 1000 to 3000 nM; in assay [3], 1000 to 3000 nM.
With `O=C(/C=C/c1cccc(/C=C/C(=O)N2CCC3(C=Cc4ccccc43)CC2)n1)NO` [Example 60, (E)-3-(6-{(E)-3-[Spiro[indene-1,4′-piperidine-1′-yl]-3-oxo-propenyl}-pyridin-2-yl)-N-hydroxy-acrylamide hydrochloride], the half-maximal inhibitory concentration (IC50) in assay [1] is not above 1000 nM; in assay [2], 1000 to 3000 nM; in assay [3], not below 3000 nM.
On to `O=C(/C=C/c1cccc(/C=C/C(=O)N2CCC[C@@H](c3ccccc3)C2)c1)NO` [Example 82, (E)-N-Hydroxy-3-{3-[(E)-3-oxo-3-((S)-3-phenyl-piperidin-1-yl)-propenyl]-phenyl}-acrylamide], for which the IC50 in assay [1], in assay [2] and in assay [3] was not below 3000 nM each time.
Regarding `O=C(/C=C/c1cccc(/C=C/C(=O)N2CCN(Cc3ccccc3)C(c3ccccc3)C2)n1)NO` (racemic) [Example 65, (±)-(E)-3-{6-[(E)-3-(4-Benzyl-3-phenyl-piperazin-1-yl)-3-oxo-propenyl]-pyridin-2-yl}-N-hydroxy-acrylamide hydrochloride], the IC50 in assay [1], in assay [2] and in assay [3] was 1000 to 3000 nM each time.
With `O=C(/C=C/c1cccc(/C=C/C(=O)N2CCN(C(=O)c3ccccc3)CC2)n1)NO` [Example 16, (E)-3-{6-[(E)-3-(4-Benzoyl-piperazin-1-yl)-3-oxo-propenyl]-pyridin-2-yl}-N-hydroxy-acrylamide hydrochloride], the IC50 in assay [1], in assay [2] and in assay [3] was not below 3000 nM in each case.
As to `CC(C)(C)c1ccc(N2CCN(C(=O)/C=C/c3cccc(/C=C/C(=O)NO)n3)CC2)cc1` [Example 50, (E)-3-(6-{(E)-3-[4-(4-tert-Butyl-phenyl)-piperazin-1-yl]-3-oxo-propenyl}-pyridin-2-yl)-N-hydroxy-acrylamide hydrochloride], the values for the IC50 in assay [1], in assay [2] and in assay [3] were 1000 to 3000 nM, 1000 to 3000 nM and not below 3000 nM, respectively.
For `O=C(/C=C/c1cccc(/C=C/C(=O)N2CCC[C@H](c3ccccc3)C2)c1)NO` [Example 81, (E)-N-Hydroxy-3-{3-[(E)-3-oxo-3-((R)-3-phenyl-piperidin-1-yl)-propenyl]-phenyl}acrylamide], the IC50 in assay [1], in assay [2] and in assay [3] was not below 3000 nM each time.
For `O=C(/C=C/c1cccc(/C=C/C(=O)N2CCCC(c3ccc(F)cc3)C2)n1)NO` (racemic) [Example 48, (±)-(E)-3-(6-{(E)-3-[3-(4-Fluoro-phenyl)-piperidin-1-yl]-3-oxo-propenyl}-pyridin-2-yl)-N-hydroxy-acrylamide hydrochloride], the IC50 in assay [1] is not above 1000 nM; in assay [2], not above 1000 nM; in assay [3] it was 1000 to 3000 nM.
For the compound `O=C(/C=C/c1cccc(/C=C/C(=O)N2CCNC(c3ccccc3)C2)c1)NO` (stereo not drawn) [Example 90, (E)-N-Hydroxy-3-{3-[(E)-3-oxo-3-(3-phenyl-piperazin-1-yl)-propenyl]phenyl}-acrylamide hydrochloride], the values for the IC50 in assay [1], in assay [2] and in assay [3] were 1000 to 3000 nM, 1000 to 3000 nM and not below 3000 nM, respectively.
Turning to `O=C(/C=C/c1cccc(/C=C/C(=O)N2CCN(Cc3ccccc3)CC2)n1)NO` [Example 22, (E)-3-{6-[(E)-3-(4-Benzyl-piperazin-1-yl)-3-oxo-propenyl]-pyridin-2-yl}-N-hydroxy-acrylamide hydrochloride], the IC50 in assay [1] is 1000 to 3000 nM; in assay [2], 1000 to 3000 nM; in assay [3], not below 3000 nM.
With `Cc1ccc(C2CCCN(C(=O)/C=C/c3cccc(/C=C/C(=O)NO)n3)C2)cc1` (racemic) [Example 46, (±)-(E)-N-Hydroxy-3-{6-[(E)-3-oxo-3-(3-p-tolyl-piperidin-1-yl)-propenyl]-pyridin-2-yl}-acrylamide hydrochloride], the IC50 in assay [1] was not above 1000 nM; in assay [2], not above 1000 nM; in assay [3], 1000 to 3000 nM.
With `N#CC1(c2ccccc2)CCN(C(=O)/C=C/c2cccc(/C=C/C(=O)NO)n2)CC1` [Example 28, (E)-3-{6-[(E)-3-(4-Cyano-4-phenyl-piperidin-1-yl)-3-oxo-propenyl]-pyridin-2-yl}-N-hydroxy-acrylamide hydrochloride], the figures for the IC50 in assay [1], in assay [2] and in assay [3] were 1000 to 3000 nM, 1000 to 3000 nM and not below 3000 nM, respectively.
In the case of `O=C(/C=C/c1cccc(/C=C/C(=O)N2CCN(c3ccccc3Cl)CC2)c1)NO` [Example 87, (E)-3-(3-{(E)-3-[4-(2-Chloro-phenyl)-piperazin-1-yl]-3-oxo-propenyl}-phenyl)-N-hydroxy-acrylamide hydrochloride], the values for the IC50 in assay [1], in assay [2] and in assay [3] were 1000 to 3000 nM, 1000 to 3000 nM and not below 3000 nM, respectively.
`O=C(/C=C/c1cccc(/C=C/C(=O)N2CCN(c3ccc(OCc4ccccc4)cc3)CC2)n1)NO` [Example 39, (E)-3-(6-{(E)-3-[4-(4-Benzyloxy-phenyl)-piperazin-1-yl]-3-oxo-propenyl}-pyridin-2-yl)-N-hydroxy-acrylamide hydrochloride]: the results for the half-maximal inhibitory concentration (IC50) in assay [1], in assay [2] and in assay [3] were 1000 to 3000 nM, 1000 to 3000 nM and not below 3000 nM, respectively.
As to `O=C(/C=C/c1cccc(/C=C/C(=O)N2CCN(c3ccncc3)CC2)n1)NO` [Example 40, (E)-N-Hydroxy-3-{6-[(E)-3-oxo-3-(4-pyridin-4-yl-piperazin-1-yl)-propenyl]-pyridin-2-yl}-acrylamide hydrochloride], the IC50 in assay [1], in assay [2] and in assay [3] was not below 3000 nM in each case.
Regarding `COc1ccc(N2CCN(C(=O)/C=C/c3cccc(/C=C/C(=O)NO)n3)CC2)cc1` [Example 34, (E)-N-Hydroxy-3-(6-{(E)-3-[4-(4-methoxy-phenyl)-piperazin-1-yl]-3-oxo-propenyl}-pyridin-2-yl)-acrylamide hydrochloride], the IC50 in assay [1] is 1000 to 3000 nM; in assay [2], not above 1000 nM; in assay [3] it was 1000 to 3000 nM.
Take `Cc1ccccc1C1CCCN(C(=O)/C=C/c2cccc(/C=C/C(=O)NO)c2)C1` (racemic) [Example 79, (±)-(E)-N-Hydroxy-3-{3-[(E)-3-oxo-3-(3-o-tolyl-piperidin-1-yl)-propenyl]-phenyl}-acrylamide]: the IC50 in assay [1], in assay [2] and in assay [3] was not below 3000 nM in each case.
For the compound `O=C(/C=C/c1cccc(/C=C/C(=O)N2CCc3nc(-c4ccccc4)sc3C2)n1)NO` [Example 97, (E)-N-Hydroxy-3-{6-[(E)-3-oxo-3-(2-phenyl-6,7-dihydro-4H-thiazolo[5,4-c]pyridin-5-yl)-propenyl]-pyridin-2-yl}-acrylamide hydrochloride], the figures for the half-inhibitory concentration (IC50) in assay [1], in assay [2] and in assay [3] were not above 1000 nM, not above 1000 nM and 1000 to 3000 nM, respectively.
With `CCN1CCN(C(=O)/C=C/c2cccc(/C=C/C(=O)NO)n2)CC1c1ccccc1` (racemic) [Example 64, (±)-(E)-3-{6-[(E)-3-(4-Ethyl-3-phenyl-piperazin-1-yl)-3-oxo-propenyl]-pyridin-2-yl}-N-hydroxy-acrylamide hydrochloride], the IC50 in assay [1], in assay [2] and in assay [3] was not above 1000 nM each time.
Regarding `O=C(/C=C/c1cccc(/C=C/C(=O)N2CCC(c3ccccc3)CC2)n1)NO` [Example 19, (E)-N-Hydroxy-3-{6-[(E)-3-oxo-3-(4-phenyl-piperidin-1-yl)-propenyl]-pyridin-2-yl}-acrylamide hydrochloride], the IC50 in assay [1], in assay [2] and in assay [3] was 1000 to 3000 nM throughout.
With `O=C(/C=C/c1cccc(/C=C/C(=O)N2CCc3cc(-c4ccccc4)ccc3C2)n1)NO` [Example 96, (E)-N-Hydroxy-3-{6-[(E)-3-oxo-3-(6-phenyl-3,4-dihydro-1H-isoquinolin-2-yl)-propenyl]-pyridin-2-yl}-acrylamide hydrochloride], the half-inhibitory concentration (IC50) in assay [1] is 1000 to 3000 nM; in assay [2] it was 1000 to 3000 nM; in assay [3], not below 3000 nM.
For the compound `O=C(/C=C/c1cccc(/C=C/C(=O)N2CCN(c3ccccc3)CC2)c1)NO` [Example 3, (E)-N-Hydroxy-3-{3-[(E)-3-oxo-3-(4-phenyl-piperazin-1-yl)-propenyl]-phenyl}-acrylamide], the results for the IC50 in assay [1], in assay [2] and in assay [3] were not above 1000 nM, not above 1000 nM and 1000 to 3000 nM, respectively.
